Measured values from ChEMBL document CHEMBL1143338, “Design of beta-hairpin peptides for modulation of cell adhesion by beta-turn constraint” (J Med Chem, 2009).
Positions of bridges follow the written chain, without caps; N, C: chain ends. Residues, ends and D or L forms follow the SMILES beside them.

What was measured:
Type in all cases: cell-based
Jurkat = test: Inhibition of CD2-CD58 interaction assessed as inhibition of CD2 expressing human Jurkat T cell to CD58 expressing sheep RBC adhesion-associated E-rosette formation at 180 uM after 45 mins by microplate fluorescence analysis
[1] = biological target: T1, T-cell surface antigen CD2 (Homo sapiens) (UniProt P06729); test: Inhibition of CD2-CD58 interaction assessed as inhibition of CD2 expressing human Jurkat T cell adhesion to CD58 expressing human Caco-2 cells at 90 uM after 45 mins by microplate fluorescence analysis
T1 sequence (whole entry): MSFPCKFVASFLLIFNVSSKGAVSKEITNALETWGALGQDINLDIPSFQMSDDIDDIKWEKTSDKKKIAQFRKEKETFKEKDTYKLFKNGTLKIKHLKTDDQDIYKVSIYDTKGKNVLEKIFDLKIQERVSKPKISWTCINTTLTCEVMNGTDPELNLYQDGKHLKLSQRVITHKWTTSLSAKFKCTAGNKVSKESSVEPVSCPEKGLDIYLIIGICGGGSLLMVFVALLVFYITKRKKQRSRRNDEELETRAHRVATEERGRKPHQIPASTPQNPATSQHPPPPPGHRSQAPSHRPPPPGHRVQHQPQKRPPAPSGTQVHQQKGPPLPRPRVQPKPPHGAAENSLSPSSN

[2] = biological target: T1, T-cell surface antigen CD2 (Homo sapiens); test: Inhibition of CD2-CD58 interaction assessed as inhibition of CD2 expressing human Jurkat T cell adhesion to CD58 expressing human Caco-2 cells after 45 mins by microplate fluorescence analysis relative to control
[3] = Cytotoxicity against human Caco-2 cells assessed as cell viability at 180 uM after 2 hrs by MTT assay; conditions: read-out: Activity
[4] = biological target: T2, Lymphocyte function-associated antigen 3 (Homo sapiens) (UniProt P19256); test: Inhibition of antiCD58-FITC binding to CD58 in human Caco-2 cells at 180 uM after 1 hr by fluorescence analysis relative to control
T2 sequence (whole entry): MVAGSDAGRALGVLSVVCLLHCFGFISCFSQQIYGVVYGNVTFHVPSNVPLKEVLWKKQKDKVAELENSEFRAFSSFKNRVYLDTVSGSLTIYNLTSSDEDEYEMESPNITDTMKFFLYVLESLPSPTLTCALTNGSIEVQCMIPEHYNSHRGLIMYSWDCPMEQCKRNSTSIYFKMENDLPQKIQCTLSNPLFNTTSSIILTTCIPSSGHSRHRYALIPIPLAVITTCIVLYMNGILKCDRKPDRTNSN

SMILES | inhibition (Jurkat) | inhibition [1] | Activity [2] | viability at 2 h, 180 µM [3] | inhibition [4]
CC[C@H](C)[C@@H]1NC(=O)[C@H](CC(=O)O)NC(=O)[C@H](CC(=O)O)NC(=O)CNC(=O)[C@@H]2CCCN2C(=O)[C@H](CC(=O)O)NC(=O)[C@H](Cc2ccc(O)cc2)NC(=O)[C@H]([C@@H](C)CC)NC(=O)[C@H](CO)NC(=O)[C@@H](N)CCC(=O)NCCCC[C@@H](C(=O)O)NC1=O (H-ESIYDPGDDIK-OH; lactam 1-11) | 60% | 80% | Dose-dependent effect | > 80% | 45%
CC[C@H](C)[C@@H]1NC(=O)[C@H](CC(=O)O)NC(=O)[C@H](CC(=O)O)NC(=O)CNC(=O)[C@@H]2CCCN2C(=O)[C@H](CC(=O)O)NC(=O)[C@H](Cc2ccc(O)cc2)NC(=O)[C@H]([C@@H](C)CC)NC(=O)[C@@H](N)CCC(=O)NCCCC[C@@H](C(=O)O)NC1=O (H-EIYDPGDDIK-OH; lactam 1-10) | 50% | 80% | Dose-dependent effect | > 80% | –
CC[C@H](C)[C@@H]1NC(=O)[C@H](CO)NC(=O)[C@@H](N)C(C)(C)SSC[C@@H](C(=O)O)NC(=O)[C@@H](CCCCN)NC(=O)[C@H]([C@@H](C)CC)NC(=O)[C@H](CC(=O)O)NC(=O)[C@H](CC(=O)O)NC(=O)CNC(=O)[C@@H]2CCCN2C(=O)[C@H](CC(=O)O)NC(=O)[C@H](Cc2ccc(O)cc2)NC1=O | 20% | 30% | – | > 80% | –
CC[C@H](C)[C@@H]1NC(=O)[C@H](CC(=O)O)NC(=O)[C@@H](CC(=O)O)NC(=O)CNC(=O)[C@@H]2CCCN2C(=O)[C@H](CC(=O)O)NC(=O)[C@H](Cc2ccc(O)cc2)NC(=O)[C@H]([C@@H](C)CC)NC(=O)[C@H](CCC(=O)O)NC(=O)[C@H](CCCCN)NC1=O | 60% | 80% | Dose-dependent effect | – | –
CC[C@H](C)[C@@H]1NC(=O)[C@H](CC(=O)O)NC(=O)[C@H](CC(=O)O)NC(=O)CNC(=O)[C@@H]2CCCN2C(=O)[C@H](CC(=O)O)NC(=O)[C@H](Cc2ccc(O)cc2)NC(=O)[C@H]([C@@H](C)CC)NC(=O)[C@H](CCC(=O)O)NC(=O)[C@H](CCCCN)NC1=O | – | – | – | > 80% | –
